Source: article PMC10132233 (Journal of Enzyme Inhibition and Medicinal Chemistry, 2023)
pIC50: −log10 of the molar value.

Tests used:
[1] = molecular target: EGFR (Homo sapiens, UniProt P00533); assay: HotSpot kinase assay over EGFR (Reaction Biology)
[2] = tested on: PC3 prostate carcinoma cell line; assay: MTT cytotoxicity assay, PC3; type: cell-based; conditions: Homo sapiens, 24 h
From the text: Accordingly, we aimed to investigate the cytotoxic potential of this new series against prostate carcinoma cell lines. […] The potent nanomolar cell-based activity of this series of compounds over the tested prostate carcinoma cell line could be attributed to other possible targets in addition to EGFR and HER2 receptors. The presence of the 2-nitroimidazole moiety in the chemical structure of compounds 9a–h could develop possible covalent bonds between the nitroimidazole moiety and some cellular proteins.
Prostate cancer cell lines (PC3 and 22RV1) of American Type Culture Collection (ATCC) were obtained from Korean Cell Center (KCL). PC3 and 22RV1 cell lines were cultured in Roswell Park Memorial Institute Medium (RPMI) 1640 and Dulbecco’s modified Eagle’s medium (DMEM) (GenDepot, Barker, TX) supplemented with 1% penicillin–streptomycin and 10% foetal bovine serum (FBS). The cells were maintained at 37 °C in a 5% CO2 with a 95% humid atmosphere.
To further analyse the intracellular cytotoxicity effect of the as-synthesised compounds, MTT assay was performed. Moreover, the experiments were divided into subcategories. In each group, cancer cells were first seeded in 96-well plates (4 × 10^4 cells per well) and then incubated for 24 h at 37 °C in a 5% CO2-containing atmosphere. Subsequently, the medium from the culture plate was removed, and 100 µL of RPMI media containing different concentrations of compounds (0.01, 0.005, 0.0025, 0.00125, and 0.000625 µM) were then added into the cell lines in each well and incubated for 24 h in a 5% CO2 humidified incubator at 37 °C. Afterwards, MTT solution (150 μL, 1 mg/mL) was added to each well, replacing the media-containing compounds. After 4 h of incubation, the MTT reagent was removed, and 200 μL of DMSO was then added to dissolve the formazan crystals, and colour intensity was measured at a wavelength of 540 nm using a BioTek Synergy H1 instrument (BioTek, Winooski, VT). IC50 was calculated according to the equation of Boltzmann sigmoidal concentration–response curve using Graph Pad Prism 5 (La Jolla, CA).

[3] = molecular target: T1, vascular endothelial growth factor receptor 2 (VEGFR2) (Homo sapiens, UniProt P35968); assay: Small kinase panel, VEGFR2; type: biochemical; conditions: read-out: % kinase inhibition (relative to DMSO control) VEGFR2
T1 construct: purchased Reaction Biology Co. (Malvern, PA)
T1 sequence (P35968 20-1356): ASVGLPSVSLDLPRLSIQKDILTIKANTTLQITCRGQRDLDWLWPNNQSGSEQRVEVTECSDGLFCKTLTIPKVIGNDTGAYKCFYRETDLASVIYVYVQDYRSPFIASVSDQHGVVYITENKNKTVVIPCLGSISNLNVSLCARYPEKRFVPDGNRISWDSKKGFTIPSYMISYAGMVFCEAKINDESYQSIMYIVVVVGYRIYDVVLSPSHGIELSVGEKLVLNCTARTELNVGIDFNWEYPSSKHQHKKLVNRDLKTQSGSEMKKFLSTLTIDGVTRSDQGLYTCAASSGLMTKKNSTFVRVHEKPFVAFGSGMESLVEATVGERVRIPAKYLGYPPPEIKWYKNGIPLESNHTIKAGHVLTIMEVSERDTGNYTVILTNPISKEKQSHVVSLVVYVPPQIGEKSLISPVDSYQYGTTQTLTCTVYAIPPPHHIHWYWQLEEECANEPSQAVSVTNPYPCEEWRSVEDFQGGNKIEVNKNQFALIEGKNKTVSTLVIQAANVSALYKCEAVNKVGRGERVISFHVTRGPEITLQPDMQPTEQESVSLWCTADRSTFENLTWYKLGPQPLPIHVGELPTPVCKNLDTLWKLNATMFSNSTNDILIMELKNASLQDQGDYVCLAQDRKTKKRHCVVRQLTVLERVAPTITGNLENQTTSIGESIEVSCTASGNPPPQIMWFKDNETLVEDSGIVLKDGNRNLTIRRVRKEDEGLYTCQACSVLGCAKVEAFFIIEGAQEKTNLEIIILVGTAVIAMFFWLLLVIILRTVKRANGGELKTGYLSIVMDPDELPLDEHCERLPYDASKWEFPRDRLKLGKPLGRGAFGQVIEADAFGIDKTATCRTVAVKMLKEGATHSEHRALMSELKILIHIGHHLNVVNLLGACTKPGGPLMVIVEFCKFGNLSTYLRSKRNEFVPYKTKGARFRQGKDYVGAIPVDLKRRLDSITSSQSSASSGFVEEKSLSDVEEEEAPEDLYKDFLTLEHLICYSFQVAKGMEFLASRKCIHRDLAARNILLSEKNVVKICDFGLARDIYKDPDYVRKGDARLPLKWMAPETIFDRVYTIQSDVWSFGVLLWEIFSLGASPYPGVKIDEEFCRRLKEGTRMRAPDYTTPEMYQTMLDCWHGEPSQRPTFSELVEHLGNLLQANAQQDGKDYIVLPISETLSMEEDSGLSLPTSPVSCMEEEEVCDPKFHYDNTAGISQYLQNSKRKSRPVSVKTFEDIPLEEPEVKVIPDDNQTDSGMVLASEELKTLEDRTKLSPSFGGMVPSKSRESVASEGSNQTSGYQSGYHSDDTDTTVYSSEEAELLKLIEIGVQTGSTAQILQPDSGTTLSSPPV
Procedure: (§1) Enzyme inhibitory assays were carried out as described in our previous reports in the literature. […] The HotSpot assay platform includes specific kinase/substrate pairs and required cofactors. The base reaction buffer consisted of 20 mM Hepes (pH 7.5), 10 mM MgCl2, 1 mM EGTA, 0.02% Brij35, 0.02 mg/mL BSA, 0.1 mM Na3VO4, 2 mM DTT, and 1% DMSO. The tested compounds were dissolved in 100% DMSO to a specific concentration, and serial dilution was conducted. The reaction mixture containing the tested compound and 33P-ATP was incubated at room temperature for 2 h, and radioactivity was detected using the filter-binding method.

[4] = tested on: PC3 cells; assay: Apoptosis analysis (Annexin V-PE/DAPI), PC3; type: cell-based, human; conditions: PC3, compound at its IC50, 24 h
Procedure: The control PC3 and 22RV1 cells and compound-treated cells were stained with PE-Annexin V and DAPI for a more appropriate cell death examination, and the cellular fluorescence analysis was then performed using ADAMII LS (Figures 4–6). Apoptosis is a type of programmed cell death that can be detected using Annexin V and the DAPI reagent. On plasma membranes, annexin V binds to […] and DAPI can bind to DNA in cells. The dot plot and image data detect early and late apoptotic cells using these two fluorophores. […] Moreover, compound 9f-treated PC3 cells went through early apoptosis (6.27%), and late apoptosis phase (16.94%) (Figures 4(D) and 6). Likewise, the fluorescence images for 22RV1 (Figure 5) and PC3 (Figure 6) cells complement the dot plot data, as higher fluorescence of DAPI and RF images clearly distinguished compound 9f-treated cells from control. […]
Annexin V conjugated to fluorochromes (PE) retains its high affinity for phosphatidylserine (PS), making it a sensitive probe for flow cytometric analysis of apoptotic cells. […] When apoptosis is measured over time, cells can often be tracked from PE Annexin V and DAPI negative (viable, or no measurable apoptosis), to PE Annexin V positive and DAPI negative (early apoptosis), and finally to PE Annexin V and DAPI positive (end stage apoptosis and death). […]

[5] = molecular target: HER2 (Homo sapiens, UniProt P04626); assay: HotSpot kinase assay over HER2 (Reaction Biology)
HER2, sequence (P04626 23-1255): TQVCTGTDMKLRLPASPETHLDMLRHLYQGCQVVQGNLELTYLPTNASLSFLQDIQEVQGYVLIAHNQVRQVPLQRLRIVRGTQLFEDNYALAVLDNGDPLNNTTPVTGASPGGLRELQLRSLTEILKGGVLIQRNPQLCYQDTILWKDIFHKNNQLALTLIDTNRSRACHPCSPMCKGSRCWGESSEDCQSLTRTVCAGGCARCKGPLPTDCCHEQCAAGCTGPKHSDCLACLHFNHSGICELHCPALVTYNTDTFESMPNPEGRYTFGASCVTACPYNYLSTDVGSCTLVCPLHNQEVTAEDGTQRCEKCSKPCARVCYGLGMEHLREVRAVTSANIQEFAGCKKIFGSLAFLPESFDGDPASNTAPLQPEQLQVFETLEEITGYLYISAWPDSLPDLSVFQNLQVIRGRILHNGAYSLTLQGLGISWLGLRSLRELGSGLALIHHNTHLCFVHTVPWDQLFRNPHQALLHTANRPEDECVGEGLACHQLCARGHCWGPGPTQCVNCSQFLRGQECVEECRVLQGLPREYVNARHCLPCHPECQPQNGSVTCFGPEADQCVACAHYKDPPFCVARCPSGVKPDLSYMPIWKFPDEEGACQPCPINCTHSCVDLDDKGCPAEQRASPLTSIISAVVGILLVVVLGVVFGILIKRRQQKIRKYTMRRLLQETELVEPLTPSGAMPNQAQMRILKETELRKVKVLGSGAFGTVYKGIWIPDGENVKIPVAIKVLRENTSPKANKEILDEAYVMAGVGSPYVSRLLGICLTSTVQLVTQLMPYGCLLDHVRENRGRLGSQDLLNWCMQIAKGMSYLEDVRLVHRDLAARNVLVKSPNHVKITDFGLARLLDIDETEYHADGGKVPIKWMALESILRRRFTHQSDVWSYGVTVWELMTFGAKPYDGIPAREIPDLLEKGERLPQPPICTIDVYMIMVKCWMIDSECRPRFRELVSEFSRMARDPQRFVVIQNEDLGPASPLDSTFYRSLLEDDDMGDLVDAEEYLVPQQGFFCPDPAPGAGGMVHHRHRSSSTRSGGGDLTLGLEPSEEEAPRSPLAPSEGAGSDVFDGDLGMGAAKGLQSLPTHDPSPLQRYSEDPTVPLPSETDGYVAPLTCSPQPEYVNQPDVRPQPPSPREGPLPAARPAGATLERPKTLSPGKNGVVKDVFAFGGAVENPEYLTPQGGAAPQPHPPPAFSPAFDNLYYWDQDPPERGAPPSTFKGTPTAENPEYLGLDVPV

[6] = molecular target: T2, fibroblast growth factor receptor 1 (FGFR1) (Homo sapiens, UniProt P11362); assay: Small kinase panel, FGFR1; type: biochemical; conditions: read-out: % kinase inhibition (relative to DMSO control) FGFR1
T2 construct: purchased Reaction Biology Co. (Malvern, PA)
T2 sequence (P11362 22-822): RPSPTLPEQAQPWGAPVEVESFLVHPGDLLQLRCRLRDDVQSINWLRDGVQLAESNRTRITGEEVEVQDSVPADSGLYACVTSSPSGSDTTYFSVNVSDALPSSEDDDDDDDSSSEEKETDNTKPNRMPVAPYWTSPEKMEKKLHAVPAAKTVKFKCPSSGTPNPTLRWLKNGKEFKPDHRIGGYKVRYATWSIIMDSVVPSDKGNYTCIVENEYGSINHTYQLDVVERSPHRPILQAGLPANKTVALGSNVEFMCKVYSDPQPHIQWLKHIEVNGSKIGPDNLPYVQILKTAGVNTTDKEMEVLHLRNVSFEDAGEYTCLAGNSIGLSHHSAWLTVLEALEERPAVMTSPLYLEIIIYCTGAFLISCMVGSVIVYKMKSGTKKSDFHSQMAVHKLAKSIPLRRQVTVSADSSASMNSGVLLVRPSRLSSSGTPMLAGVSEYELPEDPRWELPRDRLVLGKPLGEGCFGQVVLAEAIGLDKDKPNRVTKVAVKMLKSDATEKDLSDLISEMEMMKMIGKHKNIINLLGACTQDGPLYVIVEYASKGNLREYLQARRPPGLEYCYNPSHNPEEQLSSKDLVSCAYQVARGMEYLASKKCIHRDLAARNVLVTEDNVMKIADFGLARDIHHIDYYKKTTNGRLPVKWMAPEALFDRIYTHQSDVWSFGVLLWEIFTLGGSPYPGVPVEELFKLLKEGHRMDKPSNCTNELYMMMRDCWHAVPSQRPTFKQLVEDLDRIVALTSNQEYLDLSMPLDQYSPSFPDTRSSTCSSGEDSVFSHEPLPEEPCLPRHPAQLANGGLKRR
Procedure: as §1

EGFR, sequence (P00533 25-1210): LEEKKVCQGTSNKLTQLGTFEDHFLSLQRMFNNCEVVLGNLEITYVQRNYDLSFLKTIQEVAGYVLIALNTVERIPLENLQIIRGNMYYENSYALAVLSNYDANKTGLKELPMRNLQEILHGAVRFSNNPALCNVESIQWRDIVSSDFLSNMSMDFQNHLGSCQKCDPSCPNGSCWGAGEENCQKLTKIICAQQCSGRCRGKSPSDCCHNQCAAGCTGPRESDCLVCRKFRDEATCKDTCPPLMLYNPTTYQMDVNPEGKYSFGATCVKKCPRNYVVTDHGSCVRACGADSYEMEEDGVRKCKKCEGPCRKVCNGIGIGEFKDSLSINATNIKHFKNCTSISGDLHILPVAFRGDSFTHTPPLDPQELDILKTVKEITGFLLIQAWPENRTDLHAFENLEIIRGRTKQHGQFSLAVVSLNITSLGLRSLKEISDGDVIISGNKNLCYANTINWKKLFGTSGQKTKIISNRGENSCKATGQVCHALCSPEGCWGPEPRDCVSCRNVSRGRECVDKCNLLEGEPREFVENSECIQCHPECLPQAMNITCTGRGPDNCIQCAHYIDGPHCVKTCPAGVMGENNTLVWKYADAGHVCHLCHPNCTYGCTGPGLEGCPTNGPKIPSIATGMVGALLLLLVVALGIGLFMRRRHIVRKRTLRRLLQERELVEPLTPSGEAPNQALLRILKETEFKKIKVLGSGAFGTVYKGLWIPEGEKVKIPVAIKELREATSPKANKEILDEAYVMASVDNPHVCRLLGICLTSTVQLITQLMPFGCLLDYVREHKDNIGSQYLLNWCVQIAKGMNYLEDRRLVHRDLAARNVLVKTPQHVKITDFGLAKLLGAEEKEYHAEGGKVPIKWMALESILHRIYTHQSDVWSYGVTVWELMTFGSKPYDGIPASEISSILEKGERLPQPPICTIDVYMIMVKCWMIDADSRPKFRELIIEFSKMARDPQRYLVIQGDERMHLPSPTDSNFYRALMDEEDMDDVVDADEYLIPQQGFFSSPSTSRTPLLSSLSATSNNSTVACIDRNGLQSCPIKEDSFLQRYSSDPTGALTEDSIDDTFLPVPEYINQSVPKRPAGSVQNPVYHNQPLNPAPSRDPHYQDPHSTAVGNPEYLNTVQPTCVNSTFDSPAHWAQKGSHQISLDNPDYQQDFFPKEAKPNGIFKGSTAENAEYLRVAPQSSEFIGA

COc1cc2ncnc(Nc3ccc(Oc4cccc(C(F)(F)F)c4)c(Cl)c3)c2cc1OCCCCn1ccnc1[N+](=O)[O-] [Compound 9f, N-(3-Chloro-4-(3-(trifluoromethyl)phenoxy)phenyl)-7-methoxy-6-(4-(2-nitro-1H-imidazol-1-yl)butoxy)quinazolin-4-amine]
pIC50 [1]: 8.64 | fold of potency over EGFR compared to TAK-285 ([1]; ratio of IC50 values): 10 fold | fold of potency over EGFR compared to staurosporine ([1]; ratio of IC50 values): 38 fold | inhibition at 10 µM ([1]; read-out: % kinase inhibition EGFR): 99.3% | pIC50 [2]: 9.00 | inhibition at 10 µM [3]: -4.46% | early apoptosis (E.A) [4]: 6.27% | late apoptosis (L.A) [4]: 16.94% | pIC50 [5]: 6.63 | inhibition at 10 µM ([5]; read-out: % kinase inhibition HER2): 98% | inhibition at 10 µM [6]: 5.54%
